Test results from US5677285A, “Derivatives of neuraminic acid” (Fidia S.P.A., priority 1992, dated 1997).
“Also recorded” adds a separate entry of the source.

Key:
[1] = system: cerebellar granule cells and cortical neurons; test: Whole cell registration of glutamate-activated inward currents; assay type: cell-based, rats; settings: glutamate 50 μM given contemporaneously with ND37 30 μM; absence of Mg++
Protocol: Primary cell cultures of cerebellar granule cells were prepared from 8 day old rats (Zivic Miller, Pittsburgh, Pa, USA).
Neurons were grown on 35 mm plates for 7-8 days and maintained in a humid environment (95% air and 5% CO2). Cultures (2.5×10^6 cells/plate) were mainly formed by granule cells (95%), with a small amount (5%) of glial cells (Gallo V. et al.: Selective release of glutamate from cerebellar granule cells differentiating in culture. Proc. Natl. Acad. Sci. USA 79, 7919-23, 1982). Glial proliferation was prevented by arabinofuranoside cytosine.
Primary cell cultures of cortical neurons were prepared from one day old neonatal […] (Zivic Miller, Pittsburgh, Pa., USA) (Bertolino and Vicini: Mol. Pharmacol. 34, 98-103, 1988).
Cultures were grown on 35 mm plates, to which was added 10 μg/ml of poly-L-lysine, at a density of 5×10^5 cortical neurons/plate. Cultures were prepared on basal Eagle medium (Gibco) containing 10% fetal calf serum (Gibco), 25 mM KCl, 2 mM glutamine, and 100 μg/ml gentamycine. […]
Derivative ND37 was solubilized at a concentration of 1×10^-2 M in dimethylsulfoxide (1% DMSO), and then diluted at various concentrations in Locke's solution (-Mg^++) (154 mM NaCl/5.6 mM KCl/3.6 mM NaHCO3 /2.3 mM CaCl2 /5.6 mM glucose/5 mM HEPES, pH 7.4). ND37 was analyzed at concentrations of 20 and 30 μM. […]

[2] = system: C1300 mouse neuroblastoma cells, Neuro-2a clone; test: Neuritogenic activity (cells with neurites, optical microscopy); assay type: cell-based
Protocol: C1300 mouse neuroblastoma cells, Neuro-2a clone, (American Cell Type Culture Collection, Bethesda, Md.) were grown at a density of 10,000 cells/well in a culture medium containing Dulbecco's modified Eagle medium (DMEM, Flow), 10% fetal calf serum (FCS, batch IP 02, Seromed), penicillin (100 units per ml, Irvine), and L-glutamine (2 mM, Sigma). Cells were incubated at 37° C. for 24 hours, and medium was removed and substituted with 350 μl of fresh medium plus compounds to be tested.
Tested Compounds and Their Solubilization
Compounds ND35 and ND37 were solubilized at a concentration of 1×10^-2 M in dimethylsulfoxide (1% DMSO). For the different compounds, progressive dilutions in culture medium were performed (concentrations from 1×10^-5 to 1×10^-4 M).
Neuritogenic activity (cell number with neurites, optical microscopy)
Culture plates were incubated with compounds to be tested and analyzed using a phase contrast microscope (250×). Nine fields with prefixed coordinates were chosen and photographed. Then the total number of cells and those with neurites (length at least double the cell diameter) were counted in blind in each photograph. The percentage of cells with neurites was determined after counting of at least 100 cells (Facci L. et al.: Promotion of neuritogenesis in mouse neuroblastoma cells by exogenous ganglioside GM1. J. Neurochem. Raven Press, New York, 299-305,1984).

With `CCCCCCCCCCCCCCCC(=O)NC1C(O)CC(OCC)(C(=O)N(C)C)OC1C(O)C(O)CO` (stereo not drawn) [ND37, β-2-O-ethylglycoside of the dimethylamide of N-palmitoylneuraminic acid] the “inside currents activated by glutamate (whole cell response)” value [1] was “does not influence the control response; also recorded: not different”, the “Cells with neurities (%)” value ([2]; 1 × 10^-4 M) was 48 ± 9% and the “Cells with neurities (%)” value ([2]; 1 × 10^-5 M) was 5 ± 3%. The neuritogenesis in vitro ([2]; 1×10^-5 to 1×10^-4 M) was “induce neuritogenesis”, the “Cells with neurities (%)” value ([2]; 2.5 × 10^-5 M) was 8 ± 4% and the “Cells with neurities (%)” value ([2]; 5 × 10^-5 M) was 27 ± 5%.
